The text below walks through data of patent US20250230193A1, “CYCLIC COMPOUND HAVING SELECTIVE KRAS INHIBITORY EFFECT ON HRAS AND NRAS” (CHUGAI SEIYAKU KABUSHIKI KAISHA, priority 2022, published 2025).

Where a SMILES comes first, the peptide text is derived from it. Bridges are numbered along the chain shown (N, C = ends). [ ]: non-standard residue; d: D form. The star is where a group is joined. hPhe(3-Cl-4-CF3) = N[C@@H](CCc1ccc(C(F)(F)F)c(Cl)c1)C(=O)O; NPrPhe(4-CF3) = CCCN[C@@H](Cc1ccc(C(F)(F)F)cc1)C(=O)O; NMeGly(cPent) = CN[C@H](C(=O)O)C1CCCC1; cisHyp = O=C(O)[C@@H]1C[C@H](O)CN1; NMeD = CN[C@@H](CC(=O)O)C(=O)O; NMeL = CN[C@@H](CC(C)C)C(=O)O; Morpholide = C1CN(*)CCO1; Ac5c = NC1(C(=O)O)CCCC1; Sar = CNCC(=O)O

For assay [1], the target named is GDP-bound NRAS wild-type protein (Homo sapiens, UniProt P01111). Description: Binding to NRAS by surface plasmon resonance (SPR), Single Cycle Kinetics. As to conditions: for NRAS/KRAS (ratio of KD value with respect to GDP-bound NRAS wild-type protein to KD value with respect to KRAS): class symbols.
Chain of GDP-bound NRAS wild-type protein (P01111 whole entry): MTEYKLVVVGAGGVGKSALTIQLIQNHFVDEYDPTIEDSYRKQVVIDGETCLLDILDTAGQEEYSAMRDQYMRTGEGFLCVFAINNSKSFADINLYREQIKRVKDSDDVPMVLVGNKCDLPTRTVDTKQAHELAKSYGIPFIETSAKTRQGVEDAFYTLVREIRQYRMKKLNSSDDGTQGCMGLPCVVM
Assay [2] deals with GDP-bound HRAS wild-type protein (Homo sapiens, UniProt P01112). Description: Binding to HRAS by surface plasmon resonance (SPR), Single Cycle Kinetics. As to conditions: for HRAS/KRAS (ratio of KD value with respect to GDP-bound HRAS wild-type protein to KD value with respect to KRAS): class symbols.
Chain of GDP-bound HRAS wild-type protein (P01112 whole entry): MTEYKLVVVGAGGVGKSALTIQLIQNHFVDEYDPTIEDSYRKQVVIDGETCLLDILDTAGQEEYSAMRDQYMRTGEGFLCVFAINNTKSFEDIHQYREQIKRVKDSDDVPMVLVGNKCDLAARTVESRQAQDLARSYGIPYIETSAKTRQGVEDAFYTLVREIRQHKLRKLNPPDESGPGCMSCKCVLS
[3] abbreviates: KD ratio, GDP-bound NRAS wild-type vs GDP-bound KRAS wild-type, SPR.
Where [4] appears, read: KD ratio, GDP-bound HRAS wild-type vs GDP-bound KRAS wild-type, SPR.

Consider `CCCN1C(=O)CN(C)C(=O)CN(C)C(=O)[C@H]([C@@H](C)CC)NC(=O)[C@H](CC(C)C)N(C)C(=O)C[C@@H](C(=O)N2CCOCC2)N(C)C(=O)[C@H](C2CCCC2)N(C)C(=O)C2(CCCC2)NC(=O)[C@@H]2C[C@H](OCC)CN2C(=O)[C@H](CCc2ccc(C(F)(F)F)c(Cl)c2)NC(=O)CN(C)C(=O)[C@@H]1Cc1ccc(C(F)(F)F)cc1` [PP0243] ([NMeL]I[Sar][Sar][NPrPhe(4-CF3)][Sar][hPhe(3-Cl-4-CF3)][cisHyp](Et)[Ac5c][NMeGly(cPent)][NMeD]-Morpholide; lactam N-11), for which the “NRAS/KRAS (ratio of KD for GDP-bound NRAS wild-type to KD for KRAS)” value in assay [1] (KD ratio NRAS/KRAS, SPR) is “B (a compound having 3 or more and less than 10 is denoted as B)”. Besides, the “HRAS/KRAS (ratio of KD for GDP-bound HRAS wild-type to KD for KRAS)” value in assay [2] (KD ratio HRAS/KRAS, SPR) was “C (A compound having a KD ratio of 0.1 or more and less than 3 is denoted as C)”.
On to `CCO[C@@H]1C[C@H]2C(=O)NC3(CCC3)C(=O)N(C)[C@@H](C3CCCC3)C(=O)N(C)[C@H](C(=O)N(C)C)CC(=O)N(C)[C@@H](CC3CCC3)C(=O)N[C@@H]([C@@H](C)CC)C(=O)N(C)CC(=O)N(C)[C@H]3C/C=C\CCN(C3=O)[C@@H](Cc3ccc(C(F)(F)F)cc3)C(=O)N(C)CC(=O)N[C@@H](CCc3cc(F)c(C(F)(F)F)c(F)c3)C(=O)N2C1` [PP1118], for which, in assay [1] (setting [3]), the “NRAS/KRAS (ratio of KD value with respect to NRAS to KD value with respect to KRAS)” value was “A (a compound having 10 or more and less than 20 is denoted as A)”. Besides, the “HRAS/KRAS (ratio of KD value with respect to HRAS to KD value with respect to KRAS)” value in assay [2] (setting [4]) is “B (a compound having 3 or more and less than 10 is denoted as B)”.
With `CCO[C@@H]1C[C@H]2C(=O)NC3(CCC3)C(=O)N(C)[C@@H](C3CCCC3)C(=O)N3CCC[C@@H]3CC(=O)N(C)[C@@H](CC3CC3)C(=O)N[C@@H]([C@@H](C)CC)C(=O)N(C)CC(=O)N(C)[C@H]3C/C=C\CCN(C3=O)[C@@H](Cc3ccc(C(F)(F)F)cc3)C(=O)N(C)CC(=O)N[C@@H](CCc3cc(F)c(C(F)(F)F)c(F)c3)C(=O)N2C1` [PP1613], the “NRAS/KRAS (ratio of KD value for NRAS to KD value for KRAS)” value in assay [1] (setting [3]) is “B (a compound having 3 or more and less than 10 is denoted as B)”. Moreover, in assay [2] (setting [4]), the “HRAS/KRAS (ratio of KD value for HRAS to KD value for KRAS)” value is “B (a compound having 3 or more and less than 10 is denoted as B)”.
Take `CC[C@H](C)[C@@H]1NC(=O)[C@@H]2CCC/C=C/c3ccc(cc3)C[C@@H](C(=O)N(C)CC(=O)N[C@@H](CCc3ccc(Cl)c(Cl)c3)C(=O)N3C[C@H](OC(C)C)C[C@H]3C(=O)NC3(CC(C)(C)C3)C(=O)N(C)[C@@H](C3CCCC3)C(=O)N(C)[C@H](C(=O)N3CCCC3)CC(=O)N2C)N2CC/C=C\C[C@@H](C2=O)N(C)C(=O)CN(C)C1=O` [PP2596]: the “NRAS/KRAS (ratio of KD value with respect to GDP-bound NRAS wild-type protein to KD value with respect to KRAS)” value in assay [1] (KD ratio NRAS/KRAS) was “A (a compound having 10 or more and less than 20 is denoted as A)”. The “HRAS/KRAS (ratio of KD value with respect to GDP-bound HRAS wild-type protein to KD value with respect to KRAS)” value in assay [2] (KD ratio HRAS/KRAS) is “A (a compound having 10 or more and less than 20 is denoted as A)”.
Regarding `C=CCN1CC(=O)N(C)[C@H]2C/C=C\CCN(C2=O)[C@@H](Cc2ccc(C)cc2)C(=O)N(C)CC(=O)N[C@@H](CCc2ccc(C(F)(F)F)c(OC)c2)C(=O)N2C[C@H](OCC)C[C@H]2C(=O)NC2(CC(C)(C)C2)C(=O)N(C)[C@@H](C2CCCC2)C(=O)N(C)[C@H](C(=O)N(C)C)CC(=O)N(C)[C@@H](CC(C)C)C(=O)N[C@@H]([C@@H](C)CC)C1=O` [PP2058], the “NRAS/KRAS (ratio of KD value with respect to NRAS to KD value with respect to KRAS)” value in assay [1] (SPR, GDP-bound NRAS wild-type vs GDP-bound KRAS wild-type) was “A (a compound having 10 or more and less than 20 is denoted as A)”. Also, the “HRAS/KRAS (ratio of KD value with respect to HRAS to KD value with respect to KRAS)” value in assay [2] (SPR, GDP-bound HRAS wild-type vs GDP-bound KRAS wild-type) was “A (a compound having 10 or more and less than 20 is denoted as A)”.
Take `CCO[C@@H]1C[C@H]2C(=O)NC3(CCC3)C(=O)N(C)[C@@H](CC(C)(C)C)C(=O)N(C)[C@H](C(=O)N3CCCC3)CC(=O)N(C)[C@@H](CC)C(=O)N[C@@H]([C@@H](C)CC)C(=O)N(C)CC(=O)N(C)[C@H]3C/C=C\CCN(C3=O)[C@@H](CC3CCCCC3)C(=O)N(C)CC(=O)N[C@@H](CCc3cc(F)c(C(F)(F)F)c(F)c3)C(=O)N2C1` [PP2772]: the “NRAS/KRAS (ratio of KD value with respect to GDP-bound NRAS wild-type protein to KD value with respect to KRAS)” value in assay [1] (KD ratio NRAS/KRAS) was “B (a compound having 3 or more and less than 10 is denoted as B)”. Moreover, the “HRAS/KRAS (ratio of KD value with respect to GDP-bound HRAS wild-type protein to KD value with respect to KRAS)” value in assay [2] (KD ratio HRAS/KRAS) was “B (a compound having 3 or more and less than 10 is denoted as B)”.
